This note sets out measurements from ChEMBL document CHEMBL3217459, “3-Diarylethyne quinazolinones: a new class of senescence inducers” (Medchemcomm, 2013).

Molecules are shown by their SMILES.

Common to all, as to type: functional
Assay [1] deals with MCF7. The experiment in a line: Cell cycle arrest in human MCF7 cells assessed as accumulation at S phase at 4 uM after 24 hrs using propidium iodide staining by FACS analysis (reference value: 11%). In general terms: In flow cytometry, cells or beads pass a laser one at a time.
The test system of assay [2] is MCF7. The experiment in a line: Cytotoxicity against human MCF7 cells assessed as cell viability at 4 uM after 48 hrs by MTT assay. (Formazan colour is commonly taken as a measure of viable cells.)
The subject of assay [3] is MCF7. As to the kind of experiment: Cell cycle arrest in human MCF7 cells assessed as accumulation at G2/M phase at 4 uM after 24 hrs using propidium iodide staining by FACS analysis (reference value: 19%).
The subject of assay [4] is MCF7. The experiment in a line: Cytotoxicity against human MCF7 cells assessed as cell viability at 2 uM after 48 hrs by MTT assay.
The test system of assay [5] is MCF7. The experiment in a line: Cell cycle arrest in human MCF7 cells assessed as accumulation at G1 phase at 4 uM after 24 hrs using propidium iodide staining by FACS analysis (reference value: 70%).

Regarding `COc1cc(/C=C/c2nc3ccccc3c(=O)n2-c2ccc(C#Cc3ccc(C(C)(C)C)cc3)cc2C)cc(OC)c1OC`, the Activity in the assay on MCF7 [1] is reported as 8%; in the assay on MCF7 [3], 78%; in the assay on MCF7 [5], 14%. Moreover, the results for the OD in the assay with MCF7 [2] and with MCF7 [4] were 0.55 and 0.74, respectively.

With `COc1ccc2cc(C#Cc3ccc(-n4c(/C=C/c5c(Cl)cccc5Cl)nc5ccccc5c4=O)c(C)c3)ccc2c1`, the Activity in the assay on MCF7 [1] came to 8%; with MCF7 [3] it was 24%; in the assay on MCF7 [5], 68%. Also, the results for the OD in the assay on MCF7 [2] and with MCF7 [4] were 0.63 and 0.77, respectively.

On to `Cc1cc(C#Cc2ccccc2)ccc1-n1c(/C=C/c2cc(O)cc(O)c2)nc2ccccc2c1=O`, for which the Activity with MCF7 [1] worked out at 7%; in the assay with MCF7 [3], 10%; in the assay on MCF7 [5], 83%. Besides, the OD with MCF7 [2] is 0.73; in the assay with MCF7 [4], 0.92.

Take `COc1ccc2cc(C#Cc3ccc(-n4c(/C=C/c5ccnc6ccccc56)nc5ccccc5c4=O)c(C)c3)ccc2c1`: the Activity came to 7% in the assay on MCF7 [1], 19% in the assay with MCF7 [3] and 74% in the assay with MCF7 [5]. The OD in the assay on MCF7 [2] is 0.5; in the assay with MCF7 [4] it was 0.76.

Take `Cc1cc(C#Cc2ccccc2)ccc1-n1c(/C=C/c2ccc(O)c([N+](=O)[O-])c2)nc2ccccc2c1=O`: the Activity with MCF7 [1] came out at 7%; in the assay with MCF7 [3], 20%; with MCF7 [5], 73%. Further, the OD in the assay with MCF7 [2] is listed as 0.51; with MCF7 [4], 0.9.

Consider `COc1ccc2cc(C#Cc3ccc(-n4c(/C=C/c5ccc(OC)c(OC)c5)nc5ccccc5c4=O)c(C)c3)ccc2c1`, for which the Activity with MCF7 [1] is given as 7%; in the assay with MCF7 [3], 23%; with MCF7 [5] it was 70%. Further, the OD in the assay with MCF7 [2] is listed as 0.6; with MCF7 [4], 0.7.

Regarding `COc1ccc2cc(C#Cc3ccc(-n4c(/C=C/c5ccc([N+](=O)[O-])o5)nc5ccccc5c4=O)c(C)c3)ccc2c1`, the Activity with MCF7 [1] amounted to 12%; in the assay on MCF7 [3], 39%; in the assay on MCF7 [5], 49%. In addition, the OD came to 0.58 with MCF7 [2] and 0.66 in the assay with MCF7 [4].

For the compound `COc1cc(/C=C/c2nc3ccccc3c(=O)n2-c2ccc(C#Cc3ccccc3)cc2C)cc(OC)c1`, the Activity turned out to be 8% in the assay on MCF7 [1], 19% in the assay with MCF7 [3] and 73% with MCF7 [5]. Moreover, the OD is given as 0.61 in the assay on MCF7 [2] and 0.93 in the assay on MCF7 [4].

For the compound `Cc1cc(C#Cc2ccccc2)ccc1-n1c(/C=C/c2ccc(F)cc2)nc2ccccc2c1=O`, the Activity in the assay with MCF7 [1] was determined as 7%; in the assay with MCF7 [3], 20%; in the assay with MCF7 [5], 73%. Further, the OD in the assay on MCF7 [2] is listed as 0.61; with MCF7 [4], 0.75.

In the case of `COc1ccc2cc(C#Cc3ccc(-n4c(/C=C/c5ccc(F)cc5)nc5ccccc5c4=O)c(C)c3)ccc2c1`, the Activity in the assay with MCF7 [1] stood at 8%; with MCF7 [3], 18%; in the assay on MCF7 [5], 74%. For the same compound, the figures for the OD in the assay with MCF7 [2] and in the assay on MCF7 [4] were 0.57 and 0.67, respectively.

`Cc1cc(C#Cc2ccc(C(C)(C)C)cc2)ccc1-n1c(/C=C/c2ccc([N+](=O)[O-])o2)nc2ccccc2c1=O`: the Activity with MCF7 [1] is 6%; in the assay on MCF7 [3] it was 17%; in the assay on MCF7 [5], 77%. Further, the results for the OD with MCF7 [2] and in the assay with MCF7 [4] were 0.4 and 0.7, respectively.

`Cc1cc(C#Cc2ccc(C(C)(C)C)cc2)ccc1-n1c(/C=C/c2ccc(O)cc2)nc2ccccc2c1=O`: the Activity in the assay on MCF7 [1] was 7%; with MCF7 [3], 19%; with MCF7 [5] it was 74%. Also, the OD with MCF7 [2] turned out to be 0.52; in the assay on MCF7 [4], 0.71.

For the compound `Cc1cc(C#Cc2ccccc2)ccc1-n1c(/C=C/c2ccc(O)cc2)nc2ccccc2c1=O`, the results for the Activity in the assay on MCF7 [1], in the assay with MCF7 [3] and in the assay on MCF7 [5] were 7%, 18% and 75%, respectively. Also, the OD stood at 0.58 with MCF7 [2] and 0.87 in the assay on MCF7 [4].

With `Cc1cc(C#Cc2ccccc2)ccc1-n1c(/C=C/c2ccc([N+](=O)[O-])o2)nc2ccccc2c1=O`, the values for the OD in the assay on MCF7 [2] and in the assay on MCF7 [4] were 0.37 and 0.88, respectively.

For the compound `Cc1cc(C#Cc2ccc(C(C)(C)C)cc2)ccc1-n1c(/C=C/c2ccc(Cl)cc2)nc2ccccc2c1=O`, the OD with MCF7 [2] worked out at 0.59; in the assay on MCF7 [4] it was 0.71.

As to `Cc1cc(C#Cc2ccc(C(C)(C)C)cc2)ccc1-n1c(/C=C/c2ccc3c(c2)OCO3)nc2ccccc2c1=O`, the Activity with MCF7 [1] is recorded as 10%; in the assay on MCF7 [3], 23%; in the assay with MCF7 [5] it was 67%. Also, the values for the OD with MCF7 [2] and in the assay on MCF7 [4] were 0.52 and 0.67, respectively.

In the case of `COc1ccc(/C=C/c2nc3ccccc3c(=O)n2-c2ccc(C#Cc3ccccc3)cc2C)cc1`, the Activity in the assay with MCF7 [1] stood at 7%; in the assay with MCF7 [3], 15%; in the assay on MCF7 [5] it was 78%. In addition, the OD stood at 0.73 with MCF7 [2] and 0.84 in the assay with MCF7 [4].

On to `Cc1ccccc1/C=C/c1nc2ccccc2c(=O)n1-c1ccc(C#Cc2ccccc2)cc1C`, for which the Activity in the assay on MCF7 [1] is 6%; in the assay on MCF7 [3] it was 6%; in the assay on MCF7 [5], 88%. Besides, the OD in the assay with MCF7 [2] is recorded as 0.51; with MCF7 [4] it was 0.78.

Take `COc1ccc2cc(C#Cc3ccc(-n4c(/C=C/c5ccc6ccccc6c5)nc5ccccc5c4=O)c(C)c3)ccc2c1`: the Activity in the assay on MCF7 [1] is given as 9%; in the assay on MCF7 [3], 22%; with MCF7 [5] it was 69%. Also, the OD in the assay with MCF7 [2] was determined as 0.46; in the assay with MCF7 [4] it was 0.81.

Regarding `COc1ccc2cc(C#Cc3ccc(-n4c(/C=C/c5cc(OC)c(OC)c(OC)c5)nc5ccccc5c4=O)c(C)c3)ccc2c1`, the Activity in the assay on MCF7 [1] amounted to 7%; with MCF7 [3] it was 21%; with MCF7 [5], 72%. Also, the figures for the OD with MCF7 [2] and in the assay with MCF7 [4] were 0.58 and 0.57, respectively.

`Cc1cc(C#Cc2ccc(C(C)(C)C)cc2)ccc1-n1c(/C=C/c2cc(O)cc(O)c2)nc2ccccc2c1=O`: the Activity in the assay on MCF7 [1] stood at 8%; in the assay with MCF7 [3], 18%; in the assay with MCF7 [5], 74%. Moreover, the OD is 0.43 in the assay on MCF7 [2] and 0.6 with MCF7 [4].

As for `Cc1cc(C#Cc2ccc(C(C)(C)C)cc2)ccc1-n1c(/C=C/c2ccc3ccccc3c2)nc2ccccc2c1=O`, the Activity worked out at 8% in the assay with MCF7 [1], 20% in the assay on MCF7 [3] and 72% with MCF7 [5]. For the same compound, the OD amounted to 0.61 with MCF7 [2] and 0.92 in the assay on MCF7 [4].

As to `Cc1cc(C#Cc2ccccc2)ccc1-n1c(/C=C/c2ccc3ccccc3c2)nc2ccccc2c1=O`, the Activity in the assay on MCF7 [1] is on record as 8%; in the assay with MCF7 [3] it was 24%; in the assay with MCF7 [5], 68%. Besides, the OD with MCF7 [2] is 0.43; in the assay on MCF7 [4], 0.97.

Take `Cc1cc(C#Cc2ccc(C(C)(C)C)cc2)ccc1-n1c(/C=C/c2ccc([N+](=O)[O-])s2)nc2ccccc2c1=O`: the Activity with MCF7 [1] was 8%; with MCF7 [3] it was 24%; in the assay with MCF7 [5] it was 68%. Moreover, the OD in the assay on MCF7 [2] is on record as 0.25; with MCF7 [4], 0.54.

On to `Cc1cc(C#Cc2ccccc2)ccc1-n1c(/C=C/c2ccc(Cl)cc2)nc2ccccc2c1=O`, for which the values for the Activity in the assay with MCF7 [1], in the assay with MCF7 [3] and in the assay with MCF7 [5] were 7%, 18% and 75%, respectively. The OD in the assay with MCF7 [2] was determined as 0.48; in the assay on MCF7 [4] it was 0.74.
